From patent US20240299385A1 (ReWind Therapeutics NV, priority 2021, published 2024)
pIC50: −log10 of the molar value.

target: T1, human GPR17 receptor (Homo sapiens, UniProt Q13304); experiment: Calcium mobilization functional assay (Fluo-8, FLIPR TETRA) in HEK-293 hGPR17 (Gα-q assay); type: cell-based; conditions: antagonism of MDL29,951 (~EC80) induced Ca2+ signal; cell line (HEK-293 hGPR17 or HEK-293 Suchi5 hGPR17) not given
T1 construct: host or cells: HEK-293
Description: HEK-293 cells stably expressing the human GPR17 receptor (HEK-293 hGPR17) developed by Axxam (Bresso, Milan, Italy) were cultured at 37° C. in a humidified atmosphere of 5% CO2. Cells were grown in EMEM supplemented with FBS (10%), Penicillin/Streptomycin (1%), Ultraglutamine I (2 mM), puromycin (0.6 μg/mL), G418 (0.4 mg/mL), zeocin (50 μg/mL). This cell line was used to test the compound antagonistic activity by monitoring the Gα-q based signaling. Signaling via Gα-q leads to mobilization of calcium from internal stores. Elevated intracellular calcium levels can then be measured with calcium-sensitive fluorescent dyes (e.g., Fluo 8-No Wash Dye).
GPR17 activation leads to both an increase in intracellular calcium (via Gα-q) and a decrease in cAMP levels (via Gα-i), implicating that both of these pathways play a role for in vivo function.
Experiments were performed using the below cell lines, as described in part 1: • HEK-293 hGPR17 (used to study the compounds acting via Gα-q pathway) • HEK-293 Suchi5 hGPR17 (used to study the compounds acting via Gα-i pathway, where the Gα-i signaling is switched to a Gα-q signaling thanks to the Gα-i/q chimera Suchi5)
GPR17 activation was able to induce an endoplasmic reticulum calcium (Ca^2+) store release in cytosol which could be measured using the fluorescent Ca^2+ sensitive dye Fluo-8 No Wash Dye as readout.
HEK-293 hGPR17 and HEK-293 Suchi5 hGPR17 were seeded at a density of 15,000 cells/well into poly-D-lysine coated black 384-well plates with clear bottom in complete medium. Cells were incubated overnight at 37° C. in a humidified atmosphere of 5% CO2. Twenty-four hours after seeding, the culture medium was carefully removed manually and the cells were loaded for 60 minutes at room temperature with the Ca^2+ sensitive Fluo-8 No Wash Dye, according to manufacturer's instructions. Cells were then assayed using a fluorometric imaging plate reader (FLIPR^TETRA). Fluorescence (excitation: 470-495 nm; emission: 515-575 nm) was recorded during the experiment. […] After twenty minutes, a second injection of MDL29,951 at ˜EC80 (500 nM for HEK-293 hGPR17 and 2 nM for HEK-293 Suchi5 hGPR17) in assay buffer was performed at the FLIPR^TETRA and the signal of the emitted fluorescence was recorded for additional 2 minutes. All the compound injections and incubations were performed in duplicate. For data quality and data analysis the Screener® 16.0.6 (Genedata) software was used.

T1 sequence (Q13304 whole entry): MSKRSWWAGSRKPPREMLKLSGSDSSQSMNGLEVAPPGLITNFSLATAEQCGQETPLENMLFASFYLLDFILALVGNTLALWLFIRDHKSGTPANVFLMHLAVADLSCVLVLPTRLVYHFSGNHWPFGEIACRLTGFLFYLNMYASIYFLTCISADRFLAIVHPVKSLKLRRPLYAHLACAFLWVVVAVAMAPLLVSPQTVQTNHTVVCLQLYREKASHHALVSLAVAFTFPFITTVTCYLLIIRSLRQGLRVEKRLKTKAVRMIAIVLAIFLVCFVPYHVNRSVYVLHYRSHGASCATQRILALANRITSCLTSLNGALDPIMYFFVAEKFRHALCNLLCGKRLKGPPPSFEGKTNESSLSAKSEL

SMILES	pIC50
N#Cc1ccc(NS(=O)(=O)c2c[nH]cc2-c2ccc(F)cc2)c(F)c1 [Cpd 217, N-(4-cyano-2-fluoro-phenyl)-4-(4-fluorophenyl)-1H-pyrrole-3-sulfonamide]	4.30 to 5.30
O=S(=O)(Nc1cc(F)c(C(F)(F)F)cc1F)c1c[nH]c(-c2cccc3ccnn23)c1 [Cpd 566, N-[2,5-difluoro-4-(trifluoromethyl)phenyl]-5-pyrazolo[1,5-a]pyridin-7-yl-1H-pyrrole-3-sulfonamide]	5.30 to 6.30
CC(=O)c1ccc(NS(=O)(=O)c2c[nH]c(-c3ccccn3)c2)c(F)c1 [Cpd 200, N-(4-acetyl-2-fluoro-phenyl)-5-(2-pyridyl)-1H-pyrrole-3-sulfonamide]	4.30 to 5.30
N#Cc1cnc(-c2cc(S(=O)(=O)Nc3cc(F)c(C(F)(F)F)cc3F)c[nH]2)s1 [Cpd 607, 5-(5-cyano-1,3-thiazol-2-yl)-N-[2,5-difluoro-4-(trifluoromethyl)phenyl]-1H-pyrrole-3-sulfonamide]	4.30 to 5.30
O=S(=O)(Nc1cc(F)c(Br)cc1F)c1c[nH]c(C2CCC2)c1 [Cpd 551, N-(4-bromo-2,5-difluorophenyl)-5-cyclobutyl-1H-pyrrole-3-sulfonamide]	> 6.30
N#Cc1ccc(NS(=O)(=O)c2c[nH]c(-c3c(F)cc(F)cc3F)c2)c(F)c1 [Cpd 489, N-(4-cyano-2-fluorophenyl)-5-(2,4,6-trifluorophenyl)-1H-pyrrole-3-sulfonamide]	> 6.30
CC(C)Oc1cccc(Cc2c[nH]cc2S(=O)(=O)Nc2ccc(C#N)cc2F)c1 [Cpd 341, N-(4-cyano-2-fluoro-phenyl)-4-[(3-isopropoxyphenyl)methyl]-1H-pyrrole-3-sulfonamide]	5.30 to 6.30
Cc1cc(NS(=O)(=O)c2c[nH]cc2Cc2ccccc2)c(F)cc1C#N [Cpd 440, 4-benzyl-N-(4-cyano-2-fluoro-5-methylphenyl)-1H-pyrrole-3-sulfonamide]	> 6.30
O=S(=O)(Nc1ncc(C(F)(F)F)cc1F)c1c[nH]c(-c2ccccc2F)c1 [Cpd 176, 5-(2-fluorophenyl)-N-[3-fluoro-5-(trifluoromethyl)-2-pyridyl]-1H-pyrrole-3-sulfonamide]	5.30 to 6.30
COc1ccc(-c2cc(S(=O)(=O)Nc3ccc(C#N)cc3F)c[nH]2)c(C)c1 [Cpd 251, N-(4-cyano-2-fluoro-phenyl)-5-(4-methoxy-2-methyl-phenyl)-1H-pyrrole-3-sulfonamide]	4.30 to 5.30
O=S(=O)(Nc1cc(F)c(C(F)(F)F)cc1F)c1c[nH]c(-c2ccco2)c1 [Cpd 275, N-[2,5-difluoro-4-(trifluoromethyl)phenyl]-5-(2-furyl)-1H-pyrrole-3-sulfonamide]	> 6.30
COc1nc(OCC(F)F)c(F)cc1NS(=O)(=O)c1c[nH]cc1-c1cccc(F)c1 [Cpd 460, N-[6-(2,2-difluoroethoxy)-5-fluoro-2-methoxypyridin-3-yl]-4-(3-fluorophenyl)-1H-pyrrole-3-sulfonamide]	5.30 to 6.30
N#Cc1ccc(NS(=O)(=O)c2c[nH]cc2-c2cccc3ccccc23)c(F)c1 [Cpd 381, N-(4-cyano-2-fluorophenyl)-4-naphthalen-1-yl-1H-pyrrole-3-sulfonamide]	4.30 to 5.30
CCOc1ccccc1-c1cc(S(=O)(=O)Nc2ccc(C#N)cc2F)c[nH]1 [Cpd 240, N-(4-cyano-2-fluoro-phenyl)-5-(2-ethoxyphenyl)-1H-pyrrole-3-sulfonamide]	5.30 to 6.30
COc1cc(OC(F)F)cnc1NS(=O)(=O)c1c[nH]cc1Cc1ccccc1 [Cpd 433, 4-benzyl-N-[5-(difluoromethoxy)-3-methoxypyridin-2-yl]-1H-pyrrole-3-sulfonamide]	4.30 to 5.30
N#Cc1ccc(NS(=O)(=O)c2c[nH]c(-c3ccccc3)c2)cc1F [Cpd 035, N-(4-cyano-3-fluoro-phenyl)-5-phenyl-1H-pyrrole-3-sulfonamide]	> 6.30
Cc1nc(Cl)ccc1NS(=O)(=O)c1c[nH]c(-c2ccccc2)c1 [Cpd 126, N-(6-chloro-2-methyl-3-pyridyl)-5-phenyl-1H-pyrrole-3-sulfonamide]	5.30 to 6.30
COc1cc(CC#N)cnc1NS(=O)(=O)c1c[nH]c(-c2ccccc2F)c1 [Cpd 464, N-[5-(cyanomethyl)-3-methoxypyridin-2-yl]-5-(2-fluorophenyl)-1H-pyrrole-3-sulfonamide]	5.30 to 6.30

SMILES	pIC50
Cc1ccc(-c2cc(S(=O)(=O)Nc3cc(F)c(C(F)(F)F)cc3F)c[nH]2)nc1 [Cpd 280, N-[2,5-difluoro-4-(trifluoromethyl)phenyl]-5-(5-methyl-2-pyridyl)-1H-pyrrole-3-sulfonamide]	5.30 to 6.30
Cc1csc(-c2cc(S(=O)(=O)Nc3cc(F)c(OC(F)F)cc3F)c[nH]2)n1 [Cpd 634, N-[4-(difluoromethoxy)-2,5-difluorophenyl]-5-(4-methyl-1,3-thiazol-2-yl)-1H-pyrrole-3-sulfonamide]	> 6.30
N#Cc1ccc(NS(=O)(=O)c2c[nH]c(-c3cccs3)c2)c(F)c1 [Cpd 102, N-(4-cyano-2-fluoro-phenyl)-5-(2-thienyl)-1H-pyrrole-3-sulfonamide]	> 6.30
N#Cc1ccc(NS(=O)(=O)c2c[nH]c(-c3cccc4c3OCC4)c2)c(F)c1 [Cpd 443, N-(4-cyano-2-fluorophenyl)-5-(2,3-dihydro-1-benzofuran-7-yl)-1H-pyrrole-3-sulfonamide]	> 6.30
N#Cc1ccc(NS(=O)(=O)c2c[nH]c(-c3ccccc3OC3CC3)c2)c(F)c1 [Cpd 397, N-(4-cyano-2-fluorophenyl)-5-(2-cyclopropyloxyphenyl)-1H-pyrrole-3-sulfonamide]	5.30 to 6.30
N#Cc1ccc(NS(=O)(=O)c2c[nH]cc2CCc2ccccc2)c(F)c1 [Cpd 625, N-(4-cyano-2-fluorophenyl)-4-(2-phenylethyl)-1H-pyrrole-3-sulfonamide]	4.30 to 5.30
O=S(=O)(Nc1ccc(F)cc1F)c1c[nH]c(-c2cccc(F)c2)c1 [Cpd 120, N-(2,4-difluorophenyl)-5-(3-fluorophenyl)-1H-pyrrole-3-sulfonamide]	4.30 to 5.30
N#Cc1ccc(NS(=O)(=O)c2c[nH]cc2-c2cccc(Cl)c2)c(F)c1 [Cpd 228, 4-(3-chlorophenyl)-N-(4-cyano-2-fluoro-phenyl)-1H-pyrrole-3-sulfonamide]	> 6.30
O=S(=O)(Nc1ncc(Cl)cc1F)c1c[nH]c(-c2ccccc2F)c1 [Cpd 048, N-(5-chloro-3-fluoro-2-pyridyl)-5-(2-fluorophenyl)-1H-pyrrole-3-sulfonamide]	5.30 to 6.30
O=S(=O)(Nc1ccc(OC(F)F)nc1F)c1c[nH]c(-c2ccccc2)c1 [Cpd 188, N-[6-(difluoromethoxy)-2-fluoro-3-pyridyl]-5-phenyl-1H-pyrrole-3-sulfonamide]	5.30 to 6.30
N#Cc1ccc(NS(=O)(=O)c2c[nH]c(-c3cccc(F)c3)c2)c(F)c1 [Cpd 004, N-(4-cyano-2-fluoro-phenyl)-5-(3-fluorophenyl)-1H-pyrrole-3-sulfonamide]	> 6.30
N#Cc1ccc(-c2cc(S(=O)(=O)Nc3cc(F)c(C(F)(F)F)cc3F)c[nH]2)cc1 [Cpd 330, 5-(4-cyanophenyl)-N-[2,5-difluoro-4-(trifluoromethyl)phenyl]-1H-pyrrole-3-sulfonamide]	4.30 to 5.30
Cc1ccc(F)c(-c2cc(S(=O)(=O)Nc3cc(F)c(C(F)(F)F)cc3F)c[nH]2)c1 [Cpd 315, N-[2,5-difluoro-4-(trifluoromethyl)phenyl]-5-(2-fluoro-5-methyl-phenyl)-1H-pyrrole-3-sulfonamide]	5.30 to 6.30
N#Cc1ccc(F)c(-c2cc(S(=O)(=O)Nc3nc(F)c(OCCF)cc3F)c[nH]2)c1 [Cpd 662, 5-(5-cyano-2-fluorophenyl)-N-[3,6-difluoro-5-(2-fluoroethoxy)pyridin-2-yl]-1H-pyrrole-3-sulfonamide]	> 6.30
O=S(=O)(Nc1cc(F)c(C(F)(F)F)cc1F)c1c[nH]c(-c2cccc(Br)n2)c1 [Cpd 371, 5-(6-bromo-2-pyridyl)-N-[2,5-difluoro-4-(trifluoromethyl)phenyl]-1H-pyrrole-3-sulfonamide]	5.30 to 6.30
COc1csc(-c2cc(S(=O)(=O)Nc3cc(F)c(C#N)cc3F)c[nH]2)n1 [Cpd 661, N-(4-cyano-2,5-difluorophenyl)-5-(4-methoxy-1,3-thiazol-2-yl)-1H-pyrrole-3-sulfonamide]	> 6.30
N#Cc1ccc(NS(=O)(=O)c2c[nH]c(-c3c(Cl)cccc3Cl)c2)c(F)c1 [Cpd 270, N-(4-cyano-2-fluoro-phenyl)-5-(2,6-dichlorophenyl)-1H-pyrrole-3-sulfonamide]	5.30 to 6.30
